Results on seven compounds are retold here after US20250195521A1 (Revolution Medicines, Inc., priority 2020, published 2025).

pEC50, pIC50: −log10 of the molar value. Some results are limits rather than exact numbers.

Experiment [1] deals with K-Ras G12C (NCI-H358 cells). Kind of experiment: Potency assay: pERK in NCI-H358 cells. The class given is cell-based, human. As to conditions: Homo sapiens; NCI-H358 cells, 4 hours; read-out: pERK EC50 (H358 KRAS G12C). The method in brief:
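Cells plated the day before were exposed for 4 h at 37° C, 5% CO2 to a 10-point, 3-fold DMSO dilution series (10 mM top stock), in duplicate. Phospho-ERK was read by AlphaLISA SureFire Ultra or by In-Cell Western with DRAQ5 DNA stain, and IC50 came from a 4-parameter sigmoidal fit.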

Experiment [2] relates to Capan-1 cells (K-Ras G12V). Kind of experiment: CellTiter-Glo cell viability, Capan-1. Type of experiment: cell-based, human. As to conditions: Homo sapiens, CAPAN-1, 120 h, K-Ras G12V, 5-day treatment; read-out: Capan-1 Cell Viability IC50. The method in brief:
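Luminescence read on day 5 after ~30 min room-temperature equilibration; compounds added directly to plated cells. Values = (sample signal/avg DMSO)*100, four-parameter logistic fit.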
(In general: In ATP-based viability assays light output follows the ATP content of the culture.)

The target in another experiment is KRAS G12S (Homo sapiens (Human), UniProt P01116+P62937, G12S). Description: Ras-Raf disruption/FRET/MOA assay (BRAF RBD, Cyclophilin A). The class given is biochemical. As to conditions: read-out: KRAS G12S FRET IC50. The method in brief: (§1)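 TR-FRET read after 1.5 h with 10 nM anti-His Eu-W1024 and 50 nM anti-GST APC, following 3 h at 25 °C of GMPPNP-loaded His6-Ras (12.5 nM), GST-BRAF RBD (50 nM) and Cyclophilin A (25 μM) with compound from 30 μM final, 10 points, 3-fold. IC50 reported; pH 7.3 HEPES, 100 mM NaCl.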

The next experiment addresses KRAS G12C (Homo sapiens (Human), UniProt P01116+P62937, G12C). The experiment is described as above. The class given is biochemical. As to conditions: read-out: KRAS G12C FRET IC50. The method in brief:
as §1

The target in a further experiment is KRAS G12D (Homo sapiens (Human), UniProt P01116+P62937, G12D). The experiment is described as above. The class given is biochemical. As to conditions: read-out: KRAS G12D FRET IC50. The method in brief: as §1
Another experiment concerns the target NRAS G12C (Homo sapiens (Human), UniProt P01111+P62937, G12C). Described as above. Particulars: read-out: NRAS G12C FRET data IC50. Type of experiment: biochemical. The method in brief:
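Measured: compound-facilitated Cyclophilin A:Ras complex blocking RAF RBD binding. Conditions: 12.5 nM Ras-GMPPNP, 50 nM BRAF RBD, 25 μM CypA, 3 h plus 1.5 h detection. Output: IC50 from TR-FRET ratio.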

The next experiment deals with KRAS G13D (Homo sapiens (Human), UniProt P01116+P62937, G13D). The experiment is described as above. Type of experiment: biochemical. As to conditions: read-out: KRAS G13D FRET data IC50. The method in brief: as §1
The target of a further experiment is KRAS G13C (Homo sapiens (Human), UniProt P01116+P62937, G13C). Described as above. Type of experiment: biochemical. As to conditions: read-out: KRAS G13C FRET IC50. The method in brief:
as §1

For a further experiment, the target named is KRAS G12V (Homo sapiens (Human), UniProt P01116+P62937, G12V). The experiment is described as above. The class given is biochemical. As to conditions: read-out: KRAS G12V FRET IC50. The method in brief:
as §1

A further experiment deals with KRAS WT (Homo sapiens (Human), UniProt P01116+P62937). The description is as above. Type of experiment: biochemical. Particulars: read-out: KRAS WT FRET data IC50. The method in brief:
as §1

Chain of KRAS G12C (P01116-2 other isoform, or with tags, fused parts or gaps G12C): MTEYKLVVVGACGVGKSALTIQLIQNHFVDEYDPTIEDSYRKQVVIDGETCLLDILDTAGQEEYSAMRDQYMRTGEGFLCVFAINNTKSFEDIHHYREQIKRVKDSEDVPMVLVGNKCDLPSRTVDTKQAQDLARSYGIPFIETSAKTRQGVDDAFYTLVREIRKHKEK
Chain of KRAS G12C (P62937 whole entry): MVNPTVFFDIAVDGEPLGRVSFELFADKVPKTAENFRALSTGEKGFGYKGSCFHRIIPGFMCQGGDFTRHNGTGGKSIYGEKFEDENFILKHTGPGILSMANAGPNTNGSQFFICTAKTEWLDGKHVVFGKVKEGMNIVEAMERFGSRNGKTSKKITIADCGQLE
Chain of KRAS G12D (P01116 other isoform, or with tags, fused parts or gaps G12D): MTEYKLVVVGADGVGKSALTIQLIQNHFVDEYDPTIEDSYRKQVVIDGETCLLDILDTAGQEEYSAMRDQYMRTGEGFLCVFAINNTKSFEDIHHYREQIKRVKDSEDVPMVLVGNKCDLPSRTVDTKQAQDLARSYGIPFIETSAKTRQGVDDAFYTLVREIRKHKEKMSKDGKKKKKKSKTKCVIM
Chain of KRAS G12D (P62937 whole entry): as the sequence (P62937 whole entry) above
Chain of NRAS G12C (P01111 whole entry G12C): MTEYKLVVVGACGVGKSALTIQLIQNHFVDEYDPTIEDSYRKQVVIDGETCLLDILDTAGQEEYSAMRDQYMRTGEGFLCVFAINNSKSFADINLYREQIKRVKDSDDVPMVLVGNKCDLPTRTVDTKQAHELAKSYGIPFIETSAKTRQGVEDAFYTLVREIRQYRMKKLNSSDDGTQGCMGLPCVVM
Chain of NRAS G12C (P62937 whole entry): as the sequence (P62937 whole entry) above
Chain of KRAS WT (P01116 other isoform, or with tags, fused parts or gaps): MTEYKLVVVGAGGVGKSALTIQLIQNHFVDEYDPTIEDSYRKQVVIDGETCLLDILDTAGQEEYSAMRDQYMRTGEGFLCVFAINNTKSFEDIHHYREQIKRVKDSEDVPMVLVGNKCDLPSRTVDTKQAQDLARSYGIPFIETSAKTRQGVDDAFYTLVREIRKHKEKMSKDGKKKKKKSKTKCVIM
Chain of KRAS WT (P62937 whole entry): as the sequence (P62937 whole entry) above
Chain of KRAS G12V (P01116 other isoform, or with tags, fused parts or gaps G12V): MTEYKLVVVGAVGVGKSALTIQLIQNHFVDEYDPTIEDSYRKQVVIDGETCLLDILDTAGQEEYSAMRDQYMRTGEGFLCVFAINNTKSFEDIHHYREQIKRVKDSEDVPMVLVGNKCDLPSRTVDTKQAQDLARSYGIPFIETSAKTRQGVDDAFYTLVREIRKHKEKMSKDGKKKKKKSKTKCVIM
Chain of KRAS G12V (P62937 whole entry): as the sequence (P62937 whole entry) above
Chain of KRAS G13D (P01116 other isoform, or with tags, fused parts or gaps G13D): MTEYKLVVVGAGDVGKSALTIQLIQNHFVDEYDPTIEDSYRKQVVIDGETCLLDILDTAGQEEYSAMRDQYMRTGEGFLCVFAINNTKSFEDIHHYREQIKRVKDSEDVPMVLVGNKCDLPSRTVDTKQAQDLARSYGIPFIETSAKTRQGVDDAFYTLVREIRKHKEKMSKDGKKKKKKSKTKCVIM
Chain of KRAS G13D (P62937 whole entry): as the sequence (P62937 whole entry) above
Chain of KRAS G12S (P01116 other isoform, or with tags, fused parts or gaps G12S): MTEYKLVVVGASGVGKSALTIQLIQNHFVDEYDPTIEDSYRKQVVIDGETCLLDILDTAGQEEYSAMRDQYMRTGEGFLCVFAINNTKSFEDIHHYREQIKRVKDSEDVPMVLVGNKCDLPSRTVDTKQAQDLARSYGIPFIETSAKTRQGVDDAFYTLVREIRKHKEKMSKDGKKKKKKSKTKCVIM
Chain of KRAS G12S (P62937 whole entry): as the sequence (P62937 whole entry) above
Chain of KRAS G13C (P01116 other isoform, or with tags, fused parts or gaps G13C): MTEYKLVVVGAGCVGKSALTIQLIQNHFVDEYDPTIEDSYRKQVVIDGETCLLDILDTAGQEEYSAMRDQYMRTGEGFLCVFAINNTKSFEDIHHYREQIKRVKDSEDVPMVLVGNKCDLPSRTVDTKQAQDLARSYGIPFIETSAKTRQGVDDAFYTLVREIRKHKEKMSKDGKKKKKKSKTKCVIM
Chain of KRAS G13C (P62937 whole entry): as the sequence (P62937 whole entry) above

`CCn1c(-c2cccnc2[C@H](C)OC)c2c3cc(ccc31)-c1csc(n1)C[C@H](NC(=O)[C@H](C(C)C)N(C)C(=O)N1CCN3CCOCC3C1)C(=O)N1CCC[C@H](N1)C(=O)OCC(C)(C)C2` (some centres unmarked) [Compound A296]: in experiment [1], the pEC50 (usually −log10 of the EC50, conventionally taken in molar units) is > 5.30. Moreover, the pIC50 (commonly −log10 of the IC50, conventionally taken in molar units) is 7.00 to 8.00 in experiment [2]; 6.00 to 7.00 at KRAS G12S; 6.00 to 7.00 at KRAS G12C; 5.00 to 6.00 at KRAS G12D; 6.00 to 7.00 on NRAS G12C; 5.00 to 6.00 on KRAS G13D. The pIC50 on KRAS G13C, on KRAS G12V and on KRAS WT was 6.00 to 7.00 each time.

`CCn1c(-c2cccnc2[C@H](C)OC)c2c3cc(ccc31)-c1csc(n1)C[C@H](NC(=O)[C@H](C(C)C)N(C)C(=O)N1[C@H](C)COC[C@H]1C)C(=O)N1CCC[C@H](N1)C(=O)OCC(C)(C)C2` [Compound A275]: in experiment [1], the pEC50 was > 5.30. In addition, the pIC50 in experiment [2] was 6.00 to 7.00; at KRAS G12S it was 7.00 to 8.00; on KRAS G12C, 7.00 to 8.00; on KRAS G12D, 6.00 to 7.00; at NRAS G12C it was 7.00 to 8.00; at KRAS G13D, 7.00 to 8.00. For the same compound, the pIC50 on KRAS G13C, on KRAS G12V and on KRAS WT was 7.00 to 8.00 in each case.

Take `CCn1c(-c2cccnc2[C@H](C)OC)c2c3cc(ccc31)-c1cc(O)cc(c1)C[C@H](NC(=O)[C@H]1C[C@@H]1C)C(=O)N1CCC[C@H](N1)C(=O)OCC(C)(C)C2` [Compound A182]: the pEC50 in [1] was > 5.30. The pIC50 in [2] is 5.00 to 6.00; on KRAS G12S, 5.00 to 6.00; on KRAS G12C, 6.00 to 7.00; on KRAS G12D it was < 5.00; on NRAS G12C it was 5.00 to 6.00; on KRAS G13D, 5.00 to 6.00. Further, the pIC50 was 6.00 to 7.00 at KRAS G13C, 5.00 to 6.00 on KRAS G12V and 5.00 to 6.00 on KRAS WT.

For the compound `CCn1c(-c2cnccc2COC)c2c3cc(ccc31)-c1cc(O)cc(c1)C[C@H](NC(=O)[C@H](C(C)C)N(C)c1nccs1)C(=O)N1CCC[C@H](N1)C(=O)OCC(C)(C)C2` [Compound A86], in experiment [1], the pEC50 is > 5.30. For the same compound, the pIC50 in experiment [2] was < 5.00; at KRAS G12S it was 5.00 to 6.00; on KRAS G12C it was 6.00 to 7.00; at KRAS G12D it was < 5.00; on NRAS G12C it was 5.00 to 6.00; on KRAS G13D it was 5.00 to 6.00. In addition, the values for the pIC50 at KRAS G13C, on KRAS G12V and on KRAS WT were 6.00 to 7.00, 5.00 to 6.00 and 5.00 to 6.00, respectively.

On to `CCn1c(-c2cccnc2[C@H](C)OC)c2c3cc(ccc31)-c1cc(O)cc(c1)C[C@H](NC(=O)[C@H](C(C)C)N(C)C(=O)[C@H]1CCCC[C@@H]1N)C(=O)N1CCC[C@H](N1)C(=O)OCC(C)(C)C2` [Compound A394], for which the pEC50 in [1] is > 5.30. The pIC50 in experiment [2] is 5.00 to 6.00; on KRAS G12S, 6.00 to 7.00; on KRAS G12C, 6.00 to 7.00; at KRAS G12D, 6.00 to 7.00; at NRAS G12C, 6.00 to 7.00; at KRAS G13D, 6.00 to 7.00. For the same compound, the figures for the pIC50 on KRAS G13C, on KRAS G12V and at KRAS WT were 7.00 to 8.00, 6.00 to 7.00 and 6.00 to 7.00, respectively.

As for `CCn1c(-c2cnccc2COC)c2c3cc(ccc31)-c1cc(O)cc(c1)C[C@H](NC(=O)[C@H](C(C)C)N(C)C(=O)[C@@H]1CNC[C@@H]1C(F)(F)F)C(=O)N1CCC[C@H](N1)C(=O)OCC(C)(C)C2` [Compound A79], the pIC50 in [2] was < 5.00; on KRAS G12S, 6.00 to 7.00; on KRAS G12C it was 6.00 to 7.00; on KRAS G12D it was 6.00 to 7.00; on NRAS G12C it was 6.00 to 7.00; on KRAS G13D, 6.00 to 7.00. The pIC50 was 6.00 to 7.00 at KRAS G13C, 5.00 to 6.00 at KRAS G12V and 6.00 to 7.00 at KRAS WT.

For the compound `CCn1c(-c2cccnc2[C@H](C)OC)c2c3cc(ccc31)-c1csc(n1)C[C@H](NC(=O)[C@H](C(C)C)N(C)C(=O)N1CC(C3COC3)C1)C(=O)N1CCC[C@H](N1)C(=O)OCC(C)(C)C2` [Compound A298], the pIC50 in [2] was 7.00 to 8.00; at KRAS G12S, 6.00 to 7.00; at KRAS G12C, 7.00 to 8.00; on KRAS G12D, 6.00 to 7.00; on NRAS G12C it was 7.00 to 8.00; at KRAS G13D it was 6.00 to 7.00. Also, the pIC50 is 6.00 to 7.00 on KRAS G13C, 6.00 to 7.00 on KRAS G12V and 7.00 to 8.00 at KRAS WT.
